Measurements published in the NIST ThermoML archive (doi:10.1021/je100208e).
Numbers after ± are expanded uncertainties.

Assays:
[1] = Molar enthalpy of transition or fusion; conditions: Crystal; DSC
[2] = for vapor or sublimation pressure: Knudsen effusion; for Normal melting temperature: DTA

c1ccc2cc3ccccc3cc2c1 [anthracene]
Conditions | Molar enthalpy of transition or fusion [kcal/mol]
[1] | 6.65 ± 0.454

[2], Crystal
Conditions | vapor or sublimation pressure [kPa]
300 K | 1.192e-06 ± 7e-08
305 K | 2.257e-06 ± 1.2e-07
310 K | 4.186e-06 ± 2.2e-07
315 K | 7.613e-06 ± 3.9e-07
320 K | 1.359e-05 ± 6.9e-07
325 K | 2.383e-05 ± 1.2e-06
330 K | 4.109e-05 ± 2.1e-06
335 K | 6.969e-05 ± 3.5e-06
340 K | 0.0001164 ± 5.8e-06
345 K | 0.0001915 ± 9.6e-06
350 K | 0.0003107 ± 1.6e-05
355 K | 0.0004972 ± 2.5e-05
360 K | 0.0007852 ± 3.9e-05
365 K | 0.001225 ± 6.1e-05
370 K | 0.001888 ± 9.4e-05
373 K | 0.002433 ± 0.00012

Conditions | Normal melting temperature [°C]
[2], Crystal | 217 ± 1

c1cc2ccc3cccc4ccc(c1)c2c34 [pyrene]
Conditions | Molar enthalpy of transition or fusion [kcal/mol]
[1] | 3.87 ± 0.263

[2], Crystal 1
Conditions | vapor or sublimation pressure [kPa]
315 K | 4.79e-06 ± 2.5e-07
320 K | 8.55e-06 ± 4.4e-07
325 K | 1.499e-05 ± 7.6e-07
330 K | 2.584e-05 ± 1.3e-06
335 K | 4.382e-05 ± 2.2e-06
340 K | 7.317e-05 ± 3.7e-06
345 K | 0.0001204 ± 6e-06
350 K | 0.0001952 ± 9.8e-06
355 K | 0.0003124 ± 1.6e-05
360 K | 0.0004933 ± 2.5e-05
365 K | 0.0007693 ± 3.9e-05
370 K | 0.001185 ± 5.9e-05
375 K | 0.001806 ± 9.1e-05
378 K | 0.002312 ± 0.00012

Conditions | Normal melting temperature [°C]
[2], Crystal | 151 ± 1
